# Legend:
# Sprague Dawley rats = test: Semi-quantitative histopathology of skin at injection site after ID zoledronic acid with or without rHuPH20; assay type: in vivo; design: key to Necrosis: Mid-dermis / Infiltration: Focal / Infiltration: Muscular / Necrosis: Epidermis / Infiltration: Skin Diffuse / Infiltration: Muscle: —: Dash indicates no incidence of indicated finding; key to Infiltration: Skin Focal: —: Dash indicates no incidence of the indicated observation; settings: rat ID, 4 days
# Procedure: Nine to ten week old female Sprague Dawley rats, having approximate body weight of 200-250 grams, were employed for the study. One day prior to injection, rats were shaved and hair on the back and flank area were removed by Nair® cream (exposure less than 1 min to depilation cream) followed by deep wash with warm tap water. On the day of dosing, all rats were injected intradermally in flank area (one or two injection spots per side), with 0.1 or 0.2 mL as indicated of zoledronic acid solution, with or without rHuPH20, at each corresponding concentration as shown in study design table. Injection site appearance was observed and quantified by blind assessment each day following the injection until the end of the study, at which time animals were sacrificed and the skin around the dosing area as well as a part of the skin that was not effected by the dosing were collected and fixed in 10% neutral buffered formalin (NBF) and further embedded in paraffin, 5 μm sections were cut for H&E stain and histopathology evaluation.
# Lesion area was calculated by the following formula: W×L×¼π. Quantitative results were analyzed using one-way analysis of variance (ANOVA) method, followed by Dunnett's comparison method (Prizm 4 program). The probability values of less than 0.05 (two-tailed) were used as the critical level of significance for all tests. Groups with a sample size of two were excluded from analysis. If the sample size was 2 for the control group, there were no statistical analyses at that interval for any of the groups. Histopathologic findings were characterized by semi-quantitative analysis of necrosis and infiltration in the skin tissue. The incidences of each finding were compared with control groups by Chi-square test.
# Prior to ZA intradermal injection, rats were randomized by body weight into 7 groups of 1 or 2 rats per group (Table 2). Rats were injected with either 0.1 mL or 0.2 mL of each corresponding concentration intradermally at two separate locations on each shaved flank side for a total of 4 injections for each animal. Injection sites were observed daily post-injection for four days. Pictures of injection site reaction (ISR) area were captured by digital camera and lesion area was scored for induration, erythema, or ulceration. Two perpendicular diameters (width & length) of injection site lesion were measured by microcaliper. The lesion area was defined as the area bounded by the outer edge of the erythemic zone. Upon completion of the study, the animals were euthanized and skin at the injection site and from an untreated area of the back of the rat were excised, mounted flat onto a piece of cardboard, and placed in 10% NBF.
# A series of experiments were conducted in which various dosing concentrations of rHuPH20 were tested for the ability to reduce acute injection site lesions. Prior to ZA intra-dermal injection, rats were randomized by body weight into 11 groups of 2 rats per group. Rats were injected intradermally with 0.1 mL of each co-formulated solution as shown in Table 5 and observed daily with ISR development assessed as in Section B. Four days after injection, rats were sacrificed and the skin at the injection site as well as untreated skin from the back was excised, mounted flat onto a piece of cardboard, and placed in 10% NBF. […]
# [1] = rats; single IV administration of 1.6 mg/kg; cited from earlier work
compound,measurement,setting,value
"O=P(O)(O)C(O)(Cn1ccnc1)P(=O)(O)O [ZA, 1-hydroxy-2-(1H-imidazol-1-yl)ethylidene-1,1-bisphosphonic acid]",Infiltration: Muscle,"Sprague Dawley rats; ZA 0.05 mg/mL, rHuPH20 0 U/ml",—
same,Infiltration: Skin Diffuse,"Sprague Dawley rats; ZA 0.05 mg/mL, rHuPH20 0 U/ml",—
same,Necrosis: Epidermis,"Sprague Dawley rats; ZA 0.05 mg/mL, rHuPH20 0 U/ml",—
same,Infiltration: Skin Focal,"Sprague Dawley rats; ZA 0.4 mg/mL, rHuPH20 0 U/ml",—
same,Infiltration: Muscular,Sprague Dawley rats; ZA alone 0.05 mg/mL,—
same,Necrosis: Mid-dermis,Sprague Dawley rats; ZA alone 0.05 mg/mL,—
same,Infiltration: Focal,Sprague Dawley rats; ZA alone 0.1 mg/mL,—
same,Necrosis: Mid-dermis,Sprague Dawley rats; ZA alone 0.1 mg/mL,—
same,Infiltration: Focal,Sprague Dawley rats; ZA alone 0.2 mg/mL,—
same,Necrosis: Mid-dermis,Sprague Dawley rats; ZA alone 0.2 mg/mL,—
same,Infiltration: Focal,Sprague Dawley rats; ZA alone 0.4 mg/mL,—
same,Infiltration: Focal,Sprague Dawley rats; ZA alone 0.6 mg/mL,—
same,Infiltration: Focal,Sprague Dawley rats; ZA alone 0.8 mg/mL,—
same,injection site finding,[1],local irritation at the injection site
